Structures can show the parent of a compound that is named as a salt. Where two headings read alike, the source gives them in different places.

The results in this text go back to paper PMC6736568, “Discovery of Novel Anti-cryptosporidial Activities From Natural Products by in vitro High-Throughput Phenotypic Screening” (Frontiers in Microbiology, 2019).

One data set deals with Cryptosporidium parvum. Nature of the data set: qRT-PCR assay of the growth of C. parvum in vitro in HCT-8 host cells (primary and secondary screening, EC50). In kind it is cell-based. Conditions: Cryptosporidium parvum, HCT-8; for inhibition at 10 µM: primary screening at 10 uM, read-out: Inhibition (%); for inhibition at 3.3 µM: secondary screening at 3.3 uM, read-out: % Inhibition (3.3 uM). (In qPCR the cycle at which signal appears reflects the starting amount.)

Setting [1] is: primary screening at 10 uM, treated vs control.

Turning to `COc1cccc(O)c1O` [3-METHOXYCATECHOL], the cytotoxicity at 41 h, 10 µM in the data set “in vitro” (human) was 3.2%. The “Hs18S ΔCT” value in the data set on HCT-8 host cells (Hs18S) (human, 41 h, 10 μM) turned out to be 0.05. In addition, the inhibition (in general, the drop in the measured response relative to a control, in per cent) at 10 µM in the data set on Cryptosporidium parvum is -66.7%.
Turning to `Cc1cc(O)c(C)c(O)c1C(=O)O` [3-METHYLORSELLINIC ACID], the cytotoxicity at 41 h, 10 µM in “in vitro” (human) amounted to 3.6%. Besides, the “Hs18S ΔCT” value in the data set with HCT-8 host cells (Hs18S) (human, 41 h, 10 μM) turned out to be 0.05. In the data set with Cryptosporidium parvum, the inhibition at 10 µM was found to be 30.8%.
Take `CC1(C)CC23C(=O)CCC(O)C2(C)CCC13` (centres unmarked) [3-NOR-3-OXOPANASINSAN-6-OL]: the cytotoxicity at 41 h, 10 µM in “in vitro” (human) turned out to be 15.3%. The “Hs18S ΔCT” value in the data set on HCT-8 host cells (Hs18S) (human, 41 h, 10 μM) is 0.24. Moreover, in the data set on Cryptosporidium parvum, the inhibition at 10 µM amounted to 23.9%.
In the case of `CC1/C(=N/O)C[C@@H]2C[C@H]1C2(C)C` (some centres unmarked) [3-PINANONE OXIME], the cytotoxicity at 41 h, 10 µM in “in vitro” (human) was 1.5%. For the same molecule, the “Hs18S ΔCT” value in the data set on HCT-8 host cells (Hs18S) (human, 41 h, 10 μM) amounted to 0.02. In addition, the inhibition at 10 µM with Cryptosporidium parvum is -6.18%.
For `C[C@]12CC[C@@H](O)C[C@H]1CCc1ccccc12` [3alpha-HYDROXY-4,4-BISNOR-8,11,13-PODOCARPATRIENE], in that order: -4.1%, -0.06 and -50.2%.
In the case of `O=C(/C=C/c1ccccc1)c1ccc(O)cc1` [4'-HYDROXYCHALCONE], in “in vitro” (human), the cytotoxicity at 41 h, 10 µM was found to be 20.5%. Moreover, in the data set with HCT-8 host cells (Hs18S) (human, 41 h, 10 μM), the “Hs18S ΔCT” value stood at 0.33. Moreover, the inhibition at 10 µM in the data set with Cryptosporidium parvum worked out at 9.45%.
With `COc1ccc(C(=O)/C=C/c2ccccc2)cc1` [4'-METHOXYCHALCONE], the cytotoxicity at 41 h, 10 µM in the data set “in vitro” (human) is -12%. Moreover, the “Hs18S ΔCT” value in the data set with HCT-8 host cells (Hs18S) (setting [1]) was -0.16. The inhibition at 10 µM in the data set with Cryptosporidium parvum was 20%.
For `COc1ccc(-c2cc(=O)c3ccccc3o2)cc1` [4'-METHOXYFLAVONE], in that order: -6.3%, -0.09 and 44.4%.
As for `C=CC(C1=CC(=O)C(OC)=CC1=O)c1ccc(OC)cc1` (centres unmarked) [4,4'-DIMETHOXYDALBERGIONE], the cytotoxicity at 41 h, 10 µM in the data set “in vitro” (human) was -0.7%. In addition, in the data set on HCT-8 host cells (Hs18S) (human, 41 h, 10 μM), the “Hs18S ΔCT” value is reported as -0.01. For the same molecule, the inhibition at 10 µM in the data set on Cryptosporidium parvum is -34.2%.
Regarding `CC(=O)Oc1ccc(O)cc1` [4-ACETOXYPHENOL], the cytotoxicity at 41 h, 10 µM in the data set “in vitro” (human) was 13.4%. Further, in the data set on HCT-8 host cells (Hs18S) (human, 41 h, 10 μM), the “Hs18S ΔCT” value amounted to 0.21. Besides, the inhibition at 10 µM in the data set with Cryptosporidium parvum was -14.1%.
`C=CC(C1=CC(=O)C(OC)=CC1=O)c1ccccc1` (centres unmarked) [4-METHOXYDALBERGIONE]: the cytotoxicity at 41 h, 10 µM in the data set “in vitro” (human) is -2.3%. The “Hs18S ΔCT” value with HCT-8 host cells (Hs18S) (human, 41 h, 10 μM) is listed as -0.03. For the same molecule, the inhibition at 10 µM in the data set with Cryptosporidium parvum was -28.5%.
For `Cc1cc(=O)oc2c(O)c(O)ccc12` [4-METHYLDAPHNETIN], in that order: -16.6%, -0.22 and -23.7%.
`Cc1cc(=O)oc2cc(O)c(O)cc12` [4-METHYLESCULETIN]: the cytotoxicity at 10 µM in the data set “in vitro” worked out at 0.7%. For the same molecule, the “Hs18S ΔCT” value with HCT-8 host cells (Hs18S) (setting [1]) was 0.01. Moreover, in the data set on Cryptosporidium parvum, the inhibition at 10 µM is -3.64%.
For the molecule `Cc1c[nH]cn1` [4-METHYLIMIDAZOLE], the cytotoxicity at 10 µM in “in vitro” amounted to 11.5%. For the same molecule, the “Hs18S ΔCT” value in the data set on HCT-8 host cells (Hs18S) (setting [1]) is 0.18. For the same molecule, the inhibition at 10 µM in the data set on Cryptosporidium parvum was -27.8%.
Take `CCCCCCCCCc1ccc(O)cc1` [4-NONYLPHENOL]: the cytotoxicity at 10 µM in “in vitro” worked out at 9.2%. In addition, the “Hs18S ΔCT” value with HCT-8 host cells (Hs18S) (setting [1]) worked out at 0.14. Besides, in the data set on Cryptosporidium parvum, the inhibition at 10 µM came to 83.1% and the inhibition at 3.3 µM is -181%.
As for `CC(C)CCC[C@@H](C)[C@H]1CC[C@H]2[C@@H]3CC(=O)[C@H]4C[C@@H](O)CC[C@]4(C)[C@H]3CC[C@]12C` [5alpha-CHOLESTAN-3beta-OL-6-ONE], the cytotoxicity at 41 h, 10 µM in “in vitro” stood at 30.6%. For the same molecule, in the data set with HCT-8 host cells (Hs18S) (setting [1]), the “Hs18S ΔCT” value came out at 0.53. Besides, the inhibition at 10 µM in the data set on Cryptosporidium parvum was -27.8%.
For the molecule `COc1cccc(-c2cc(=O)c3cc(OC)ccc3o2)c1` [6,3'-DIMETHOXYFLAVONE], the cytotoxicity at 41 h, 10 µM in “in vitro” (human) is -5.6%. Also, in the data set on HCT-8 host cells (Hs18S) (human, 41 h, 10 μM), the “Hs18S ΔCT” value was -0.08. Further, the inhibition at 10 µM in the data set on Cryptosporidium parvum was 1.27%.
For `O=c1cc(-c2ccccc2)oc2ccc(O)cc12` [6-HYDROXYFLAVONE], the cytotoxicity at 41 h, 10 µM in the data set “in vitro” (human) came to 5.6%. In addition, the “Hs18S ΔCT” value in the data set with HCT-8 host cells (Hs18S) (human, 41 h, 10 μM) was 0.08. Besides, the inhibition at 10 µM in the data set on Cryptosporidium parvum worked out at 40%.
As for `O=c1cc(-c2ccccc2)oc2c(O)c(O)ccc12` [7,8-DIHYDROXYFLAVONE], the cytotoxicity at 10 µM in “in vitro” was 28.8%. The “Hs18S ΔCT” value with HCT-8 host cells (Hs18S) (setting [1]) worked out at 0.49. The inhibition at 10 µM in the data set on Cryptosporidium parvum is 49.3%.
For `O=c1cc(-c2ccccc2)oc2cc(O)ccc12` [7-HYDROXYFLAVONE], in that order: 10.8%, 0.17 and 9.24%.
`COc1ccc2c(=O)ccoc2c1` [7-METHOXYCHROMONE]: in “in vitro” (human), the cytotoxicity at 41 h, 10 µM is -26.1%. The “Hs18S ΔCT” value in the data set on HCT-8 host cells (Hs18S) (human, 41 h, 10 μM) is listed as -0.34. The inhibition at 10 µM in the data set with Cryptosporidium parvum was -17.1%.
Turning to `CC(=O)O[C@H]1CC[C@@]2(C)C(=CC(=O)[C@H]3[C@@H]4CC[C@H]([C@H](C)CCCC(C)C)[C@@]4(C)CC[C@@H]32)C1` [7-OXOCHOLESTERYL ACETATE], the cytotoxicity at 41 h, 10 µM in the data set “in vitro” (human) is -15.2%. In addition, the “Hs18S ΔCT” value in the data set with HCT-8 host cells (Hs18S) (human, 41 h, 10 μM) is -0.20. Further, the inhibition at 10 µM in the data set on Cryptosporidium parvum was -24.9%.
With `CC1(C)C(=O)[C@@H]2C[C@@]3(O)C4=CC(=O)O[C@@H](c5ccoc5)[C@]4(C)CC[C@@H]3[C@@](C)(C2=O)[C@H]1CC(=O)O` [8-HYDROX[…]], the cytotoxicity at 10 µM in the data set “in vitro” was 63%. The “Hs18S ΔCT” value in the data set with HCT-8 host cells (Hs18S) (setting [1]) is 1.43. Further, the inhibition at 10 µM in the data set with Cryptosporidium parvum was -11%.
For `COC(=O)C[C@H]1C(C)(C)C2(O)OC34CC2C(=O)[C@]1(C)C3CC[C@]1(C)C4=CC(=O)O[C@H]1c1ccoc1` (stereo partly drawn) [8beta-HYDROXYCARAPIN, 3,8-HEMIACETAL], in “in vitro” (human), the cytotoxicity at 41 h, 10 µM amounted to 11.8%. Further, in the data set on HCT-8 host cells (Hs18S) (human, 41 h, 10 μM), the “Hs18S ΔCT” value is reported as 0.18. In the data set on Cryptosporidium parvum, the inhibition at 10 µM is 89.7% and the inhibition at 3.3 µM amounted to 64%.
On to `COc1cc2c(cc1OC)C1(O)C(=O)c3ccc(O)c(C(=O)O)c3OC1CO2` (centres unmarked) [12a-HYDROXY-9-DEMETHYLMUNDUSERONE-8-CARBOXYLIC ACID], for which the cytotoxicity at 10 µM in the data set “in vitro” stood at 4.1%. Moreover, the “Hs18S ΔCT” value in the data set with HCT-8 host cells (Hs18S) (setting [1]) was determined as 0.06. In addition, the inhibition at 10 µM in the data set with Cryptosporidium parvum came out at 0.54%.
In the case of `Cc1ccc2c(c1)CC[C@H]1CC(=O)CC[C@]21C` [13-METHYL-4,4-BISNOR-8,11,13-PODOCARPATRIEN-3-ONE], in the data set “in vitro” (human), the cytotoxicity at 41 h, 10 µM is -2%. Besides, in the data set with HCT-8 host cells (Hs18S) (human, 41 h, 10 μM), the “Hs18S ΔCT” value is given as -0.03. In addition, the inhibition at 10 µM in the data set on Cryptosporidium parvum is -31.4%.
`C/C1=C\CCC(=O)C2CC(C)(C)C2CC1` (centres unmarked) [15-NORCARYOPHYLLEN-3-ONE]: the cytotoxicity at 41 h, 10 µM in “in vitro” (human) is -3.6%. Also, in the data set on HCT-8 host cells (Hs18S) (human, 41 h, 10 μM), the “Hs18S ΔCT” value was -0.05. The inhibition at 10 µM in the data set on Cryptosporidium parvum is -15.7%.
For `CC(C)c1ccc2c(c1)CC[C@H]1[C@](C)(CN)CCC[C@]21C` [18-AMINOABIETA-8,11,13-TRIENE SULFATE], the cytotoxicity at 41 h, 10 µM in the data set “in vitro” (human) was -13.9%. The “Hs18S ΔCT” value with HCT-8 host cells (Hs18S) (human, 41 h, 10 μM) is -0.19. For the same molecule, in the data set on Cryptosporidium parvum, the inhibition at 10 µM amounted to 47.6%.
As to `CC(=O)OCC(=O)[C@H]1CC[C@H]2[C@@H]3CC=C4C[C@@H](O)CC[C@]4(C)[C@H]3CC[C@]12C` [21-ACETOXYPREGNENOLONE], the cytotoxicity at 41 h, 10 µM in “in vitro” (human) came to 6.5%. In addition, in the data set on HCT-8 host cells (Hs18S) (human, 41 h, 10 μM), the “Hs18S ΔCT” value is 0.10. Besides, the inhibition at 10 µM in the data set on Cryptosporidium parvum was -41.2%.
Regarding `CC(C)C1=CC2=CC[C@@H]3[C@](C)(CCC[C@@]3(C)C(=O)O)[C@H]2CC1` [ABIETIC ACID], the cytotoxicity at 10 µM in the data set “in vitro” was -30.7%. Also, the “Hs18S ΔCT” value in the data set on HCT-8 host cells (Hs18S) (setting [1]) was -0.39. Further, the inhibition at 10 µM with Cryptosporidium parvum is -58.3%.
